Data from paper doi:10.1101/161430v2 (biorxiv, 2019).

Key:
[1] = target: T1, human carboxylesterase 1 (CES1, hCES1) (Homo sapiens, UniProt P23141); experiment: competition with 4-nitrophenyl acetate, […] nm; format: biochemical
T1 sequence (P23141 18-567): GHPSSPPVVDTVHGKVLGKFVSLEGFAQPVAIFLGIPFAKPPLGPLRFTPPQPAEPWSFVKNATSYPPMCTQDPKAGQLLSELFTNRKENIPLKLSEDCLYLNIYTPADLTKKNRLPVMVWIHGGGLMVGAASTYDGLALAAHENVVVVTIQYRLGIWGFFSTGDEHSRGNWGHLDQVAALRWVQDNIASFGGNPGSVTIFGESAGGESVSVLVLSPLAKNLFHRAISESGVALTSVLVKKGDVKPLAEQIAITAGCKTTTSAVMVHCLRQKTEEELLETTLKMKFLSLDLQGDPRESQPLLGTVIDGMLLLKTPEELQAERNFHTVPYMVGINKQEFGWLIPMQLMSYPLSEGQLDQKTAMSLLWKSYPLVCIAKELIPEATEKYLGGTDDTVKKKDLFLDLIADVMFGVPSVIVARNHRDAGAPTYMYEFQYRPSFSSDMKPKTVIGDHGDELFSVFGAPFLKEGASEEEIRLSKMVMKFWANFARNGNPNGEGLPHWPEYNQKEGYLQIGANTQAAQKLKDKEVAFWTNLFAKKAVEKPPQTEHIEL

in vitro [2] = conditions: human
PC3 = experiment: in vitro; conditions: read-out: EC50 cmpd 3.10; human, 48 h
[3] = target: T2, human carboxylesterase 2 (CES2, hCES2) (Homo sapiens, UniProt O00748); experiment: competition with 4-nitrophenyl acetate, […] nm; format: biochemical
T2 sequence (O00748 27-559): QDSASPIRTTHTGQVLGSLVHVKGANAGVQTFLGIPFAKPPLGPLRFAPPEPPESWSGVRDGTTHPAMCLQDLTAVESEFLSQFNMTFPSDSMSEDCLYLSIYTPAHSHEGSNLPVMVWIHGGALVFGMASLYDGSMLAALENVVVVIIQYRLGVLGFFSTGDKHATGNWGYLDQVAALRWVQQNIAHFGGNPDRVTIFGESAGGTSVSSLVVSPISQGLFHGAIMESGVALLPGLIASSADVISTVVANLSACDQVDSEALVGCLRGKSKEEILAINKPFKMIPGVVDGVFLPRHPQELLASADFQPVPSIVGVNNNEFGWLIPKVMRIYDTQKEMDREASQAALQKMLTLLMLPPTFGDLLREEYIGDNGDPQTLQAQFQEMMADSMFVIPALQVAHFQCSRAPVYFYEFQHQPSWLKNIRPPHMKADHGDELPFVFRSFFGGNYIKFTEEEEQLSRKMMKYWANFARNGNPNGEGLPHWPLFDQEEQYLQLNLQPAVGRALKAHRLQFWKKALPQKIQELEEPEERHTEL

[4] = target: T3, human AChE (acetylcholinesterase) (Homo sapiens, UniProt P22303); experiment: biochemical
T3 sequence (P22303 32-614): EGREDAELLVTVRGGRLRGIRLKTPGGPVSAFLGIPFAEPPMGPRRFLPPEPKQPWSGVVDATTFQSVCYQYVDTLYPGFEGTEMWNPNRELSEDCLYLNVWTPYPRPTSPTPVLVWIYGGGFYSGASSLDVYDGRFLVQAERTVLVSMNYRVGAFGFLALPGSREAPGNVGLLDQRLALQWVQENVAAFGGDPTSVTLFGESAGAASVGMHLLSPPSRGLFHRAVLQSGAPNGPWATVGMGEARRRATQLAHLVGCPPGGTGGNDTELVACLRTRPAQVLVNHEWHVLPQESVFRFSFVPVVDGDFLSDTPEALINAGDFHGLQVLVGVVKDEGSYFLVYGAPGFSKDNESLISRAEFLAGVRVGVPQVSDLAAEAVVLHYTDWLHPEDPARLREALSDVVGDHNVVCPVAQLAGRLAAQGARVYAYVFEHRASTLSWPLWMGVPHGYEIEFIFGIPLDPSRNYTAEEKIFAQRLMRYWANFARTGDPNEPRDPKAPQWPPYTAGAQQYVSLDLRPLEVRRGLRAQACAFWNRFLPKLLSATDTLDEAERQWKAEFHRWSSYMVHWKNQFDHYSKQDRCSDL

[5] = target: T1, human carboxylesterase 1 (CES1, hCES1); experiment: biochemical
[6] = target: T3, human AChE (acetylcholinesterase); experiment: Ellman assay, […] nm; format: biochemical
[7] = target: T4, human BChE (butyrylcholinesterase, BuChE) (Homo sapiens, UniProt P06276); experiment: Ellman assay, […] nm; format: biochemical
T4 sequence (P06276 29-602): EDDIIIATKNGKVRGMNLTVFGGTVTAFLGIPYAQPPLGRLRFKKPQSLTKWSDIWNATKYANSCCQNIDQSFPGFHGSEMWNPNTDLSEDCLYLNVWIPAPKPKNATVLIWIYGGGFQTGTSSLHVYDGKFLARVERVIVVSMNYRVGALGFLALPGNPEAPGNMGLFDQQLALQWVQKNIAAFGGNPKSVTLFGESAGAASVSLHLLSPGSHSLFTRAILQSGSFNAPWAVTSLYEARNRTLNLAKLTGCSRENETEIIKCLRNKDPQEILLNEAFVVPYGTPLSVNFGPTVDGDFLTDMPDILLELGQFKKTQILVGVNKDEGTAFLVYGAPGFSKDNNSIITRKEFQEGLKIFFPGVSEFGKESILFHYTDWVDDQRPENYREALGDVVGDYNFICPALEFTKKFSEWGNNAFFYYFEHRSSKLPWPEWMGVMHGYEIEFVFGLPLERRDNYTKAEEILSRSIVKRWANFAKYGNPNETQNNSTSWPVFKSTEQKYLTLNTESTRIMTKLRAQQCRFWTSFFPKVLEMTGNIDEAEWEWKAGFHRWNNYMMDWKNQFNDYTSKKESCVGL

HeLa = experiment: in vitro; conditions: read-out: EC50 viability, 3.10; human, 48 h
in vitro [8] = conditions: human, EC50 viability, 3.10
H23 = experiment: in vitro; conditions: read-out: EC50 viability, 3.10; human, 48 h
MDA-MB-231 = experiment: in vitro; conditions: read-out: EC50 viability, 3.10; human, 48 h
HT29 = experiment: in vitro; conditions: read-out: EC50 viability, 3.10; human, 48 h
HTC116 = experiment: in vitro; conditions: read-out: EC50 viability, 3.10; human, 48 h
Colo205 = experiment: in vitro; conditions: read-out: EC50 viability, 3.10; human, 48 h
[9] = target: T4, human BChE (butyrylcholinesterase, BuChE); experiment: biochemical
[10] = target: T2, human carboxylesterase 2 (CES2, hCES2); experiment: biochemical

SMILES	Ki [1] [nM]	CC50 at 48 h (in vitro [2]) [nM]	CC50 (PC3) [nM]	Ki [3] [nM]	IC50 [4] [nM]	IC50 [5] [nM]	Ki [6] [nM]	Ki [7] [nM]	CC50 (HeLa) [nM]	CC50 at 48 h (in vitro [8]) [nM]	CC50 (H23) [nM]	CC50 (MDA-MB-231) [nM]	CC50 (HT29) [nM]	CC50 (HTC116) [nM]	CC50 (Colo205) [nM]	IC50 [9] [nM]	IC50 [10] [nM]	CC50 at 48 h (in vitro [2]; 263t cells) [nM]
OB(O)c1cc(Br)cc(Oc2ccccc2)c1 [3.10, compound 3.10]	1.1	> 100000	> 100000	2.1	23000	2	9300	94	> 100000	> 100000	> 100000	> 100000	> 100000	> 100000	> 100000	490	3.8	–
OB(O)c1cc(Br)cc(N2CCCC2)c1 [compound 3]	4.1	–	–	21	61000	7.4	25000	260	–	–	–	–	–	–	–	–	37	> 100000
